# Where two headings read alike, the source gives them in different places. Peptide text beside a SMILES is read from it.
# Tests used:
# MAb 11 × 7 [1] = type: binding, mouse
# MAb 4 × 11 = type: binding, mouse
# MAb 11 × 2 = type: binding, mouse
# MAb 11 × 7 [2] = type: binding, mouse; remark: listed apart in the source
# BALB/c mice = details: mouse, in vivo
# [3] = tested on: IgG antibodies of sera of patients suffering from DLE and SS; type: binding, human
# Description: FIG. 6: ELISA reactivity of serum samples originating from patients suffering from DLE and SS with the parent peptide and the analogue RIb 277–291 of Ro52. The sera of the patients are diluted to 1:1,000. Only the antibody activity of the sub-class IgG is measured. The median values of the optical density are indicated. The broken line represents the upper limit of the normal population corresponding to the mean value of the optical density of 20 normal human sera+2 SD (standard deviation) (0.30 OD units).
# Sera of female F1 lupous mice (NZB/W) were obtained from S. Batsford (Freibourg, Germany). The human sera originate from patients suffering from disseminated lupus erythematosus (DLE) and Sjögren's syndrome (SS). They were obtained from D. A. Isenberg (London), O. Meyer (Paris) and G. Fournié (Toulouse). The sera of healthy volunteers were obtained from J. L. Pasquali (Strasbourg).
# The sera of lupous mice were tested by ELISA as described previously (Benkirane, N., Friede, M., Guichard, G., briand, J. P., Van Regenmortel, M. H. V. and Muller, S. (1993) Antigenicity and immunogenicity of modified synthetic peptides containing D-amino acid residues. J. Biol. Chem., 268: 26279–26285). Only the antibodies of isotype IgG were tested. […] Clin. Exp. Immunol., 95: 397–407) except in the case of the peptide Ro52 277–291, where sensitization of the ELISA plates was carried out at 4° C. instead of 37° C. (see the reasons above). The threshold value for positivity of each test, including that of tests based on the use of retro-inverso peptide analogues, was determined using 20 sera of healthy individuals. The antigenic activity of the peptides is also measured by ELISA using a liquid phase inhibition test.
# The 30 sera (positive or negative with respect to the L peptide) were tested in parallel with the RIa and RIb analogues. It was shown that all the sera positive with the L peptide were also positive with the retro-inverso peptides. […] The mean optical density corresponding to the arithmetic mean of all the optical density values, including the values below the threshold line of positivity, is 0.21 (standard deviation 0.25) and 0.51 (standard deviation 0.62) with the L and RIb peptides respectively.
# [4] = tested on: IgG antibodies of sera of patients suffering from DLE and SS; type: binding, human; remark: listed apart in the source
# [5] = target: MAb 4 × 11 (IgG1) anti-L peptide
# [6] = target: MAb 11 × 2 (IgG3) anti-D peptide
# [7] = target: MAb 4 × 8 (IgG1) anti-L peptide
# [8] = target: MAb 4 × 10 (IgG1) anti-L peptide
# in vitro = details: pH 7.4
smiles,measurement,setting,value
"CC[C@H](C)[C@H](NC(=O)CNC(=O)CNC(=O)[C@@H](N)CS)C(=O)N[C@@H](CCCNC(=N)N)C(=O)NCC(=O)N[C@@H](CCC(=O)O)C(=O)N[C@@H](CCCNC(=N)N)C(=O)N[C@@H](C)C(=O)O [L peptide, [H Cys-Gly-Gly]-Ile-Arg-Gly-Glu-Arg-Ala-OH] (H-CGGIRGERA-OH)",Molar excesses of inhibitor peptide required to inhibit 50% of the bonding between the MAb and D peptide,MAb 11 × 7 [1],—* (key: —: cross-reactivity not detectable (up to 250 μg/ml of competition peptide))
same,ELISA (OD) reactivity with the peptides,MAb 4 × 11,1.29 OD
same,ELISA (OD) reactivity with the peptides,MAb 11 × 2,2.75 OD
same,ELISA (OD) reactivity with the peptides,MAb 11 × 7 [2],0.47 OD
same,antibody subclasses of the response,BALB/c mice,"the antibodies belong to the IgG1, 2a and 2b subclasses"
same,sera of patients tested in which anti-peptide 277–291 antibodies are detected,[3]; 30 sera of DLE and SS patients,17%
same,number of sera containing antibodies of the subclass IgG which react with the peptide,"[3]; among 30 sera of DLE and SS patients, threshold 0.30 OD units, plates sensitized at 4° C.",5
same,mean optical density,"[3]; arithmetic mean of all 30 sera, peptide 277–291 of Ro52",0.21
same,mean optical density,[4],0.21
same,number of sera which reacted,[4],Six
same,percentage of sera which reacted,[4],30%
same,BIAcore (Ka M^−1) affinity constant at equilibrium,[5],3e+06 M⁻¹
same,Ka (affinity constant at equilibrium),[5],3e+06 M⁻¹
same,ka (association constant),[5],3 ± 0.2
same,kd (dissociation constant),[5],100 ± 0.3
same,BIAcore (Ka M^−1) affinity constant at equilibrium,[6],2e+06 M⁻¹
same,Ka (affinity constant at equilibrium),[6],2e+06 M⁻¹
same,ka (association constant),[6],2 ± 0.3
same,kd (dissociation constant),[6],100 ± 0.2
same,Ka (affinity constant at equilibrium),[7],8e+07 M⁻¹
same,ka (association constant),[7],13 ± 0.2
same,kd (dissociation constant),[7],15 ± 0.2
same,Ka (affinity constant at equilibrium),[8],"4,486 ×10^6 M^−1"
same,ka (association constant),[8],987 ± 0.7
same,kd (dissociation constant),[8],22 ± 0.2
same,bonding of MAb 11×2 to the L peptide in the presence of a non-digested peptide,trypsin,220 RU
same,time to complete loss of immunological activity on digestion with immobilized trypsin,trypsin; pH 7.4,10 min
same,half-life,in vitro,7 min

# Reference: patent US7122193B1 (priority 1994, dated 2006)
